# Data: patent US20260265252A1, “SOLID STATE FORMS OF IMIPRIDONE DERIVATIVE” (CHIMERIX, INC., priority 2024, published 2026)
# Where a name gives a salt, the structure may show the parent alone.
# Assay: ICH-compliant stability study of ONC206-HCl Drug Substance (appearance, XRPD form, HPLC assay, purity/impurities, water content, particle size, microbial)
# Format: physicochemical
# Parameters: key to Each unidentified impurity (NMT 0.5% area) / Appearance (White to off-white solid) / Polymorphic form (XRPD) (Consistent with form 2 reference diffractogram): C = Conforms; A = Absence
# Description: The purpose of the ICH-compliant stability study was to evaluate the performance to specifications of ONC206-HCl Drug Substance under specified container closure configuration, storage conditions, and intervals.
# The study was performed according to ICH Q1A(R2) and QlE Guidance documents. […]
# The Container Closure Systems were: • Primary container: LDPE bag, 4×8 inches (Source: Nexus—64378); bag closure PE 180 nm (Source: Entourage), • Secondary container: LDPE bag, 4×8 inches (Source: Nexus—64378); bag closure PE 180 nm (Source: Entourage), • Tertiary container: Heat-sealed foil bag, 15×30 (Source: SERCALIA S.L.—10234), and • Outer container: Plastic drum, 6 L (Source: Curtec, HDPE ref 54021) or Plastic drum, 3.6 L (Source: Curtec).
# [1] = 25 ± 2° C./60% ± 5% RH long term storage conditions, 0 months
# [2] = 25 ± 2° C./60% ± 5% RH long term storage conditions, 3 months
# [3] = 25 ± 2° C./60% ± 5% RH long term storage conditions, 6 months
# [4] = 25 ± 2° C./60% ± 5% RH long term storage conditions, 9 months
# [5] = 25 ± 2° C./60% ± 5% RH long term storage conditions, 12 months
# [6] = 30 ± 2° C./65% ± 5% RH intermediate conditions, 0 months
# [7] = 30 ± 2° C./65% ± 5% RH intermediate conditions, 6 months
# [8] = 30 ± 2° C./65% ± 5% RH intermediate conditions, 9 months
smiles,measurement,setting,value
"O=C1C2=C(CCN(Cc3ccccc3)C2)N2CCN=C2N1Cc1ccc(F)cc1F [ONC206-HCl, 7-benzyl-4-(2,4-difluorobenzyl)-2,4,6,7,8,9-hexahydroimidazo[1,2-a]pyrido[3,4-e]pyrimidin-5(1H)-one]",period over which stability is confirmed,2-8° C. (Table 39),6 months
same,Appearance (White to off-white solid),"2-8° C., 0 months",C
same,Assay by HPLC-UV (Anhydrous & Solvent Free basis) 97.0-103.0% w/w,"2-8° C., 0 months",101.6 % w/w
same,Each unidentified impurity (NMT 0.5% area),"2-8° C., 0 months",C
same,Particle Size (Malvern) D10 (Report result μm),"2-8° C., 0 months",28.2 μm
same,Particle Size (Malvern) D50 (Report result μm),"2-8° C., 0 months",91.4 μm
same,Particle Size (Malvern) D90 (Report result μm),"2-8° C., 0 months",201.3 μm
same,Polymorphic form (XRPD) (Consistent with form 2 reference diffractogram),"2-8° C., 0 months",C
same,Purity by HPLC (NLT 98.0% area),"2-8° C., 0 months",100.0 % area
same,Total impurities (NMT 2.0% area),"2-8° C., 0 months",0.00 % area
same,Water Content by Kf (Report result % w/w),"2-8° C., 0 months",9.3 % w/w
same,Appearance (White to off-white solid),"2-8° C., 1 months",C
same,Assay by HPLC-UV (Anhydrous & Solvent Free basis) 97.0-103.0% w/w,"2-8° C., 1 months",101.3 % w/w
same,Each unidentified impurity (NMT 0.5% area),"2-8° C., 1 months",C
same,Particle Size (Malvern) D10 (Report result μm),"2-8° C., 1 months",27.8 μm
same,Particle Size (Malvern) D50 (Report result μm),"2-8° C., 1 months",89.8 μm
same,Particle Size (Malvern) D90 (Report result μm),"2-8° C., 1 months",196.0 μm
same,Polymorphic form (XRPD) (Consistent with form 2 reference diffractogram),"2-8° C., 1 months",C
same,Purity by HPLC (NLT 98.0% area),"2-8° C., 1 months",100.0 % area
same,Total impurities (NMT 2.0% area),"2-8° C., 1 months",0.00 % area
same,Water Content by Kf (Report result % w/w),"2-8° C., 1 months",9.2 % w/w
same,Appearance (White to off-white solid),"2-8° C., 2 months",C
same,Assay by HPLC-UV (Anhydrous & Solvent Free basis) 97.0-103.0% w/w,"2-8° C., 2 months",100.3 % w/w
same,Each unidentified impurity (NMT 0.5% area),"2-8° C., 2 months",C
same,Particle Size (Malvern) D10 (Report result μm),"2-8° C., 2 months",29.4 μm
same,Particle Size (Malvern) D50 (Report result μm),"2-8° C., 2 months",91.6 μm
same,Particle Size (Malvern) D90 (Report result μm),"2-8° C., 2 months",189.0 μm
same,Polymorphic form (XRPD) (Consistent with form 2 reference diffractogram),"2-8° C., 2 months",C
same,Purity by HPLC (NLT 98.0% area),"2-8° C., 2 months",100.0 % area
same,Total impurities (NMT 2.0% area),"2-8° C., 2 months",0.00 % area
same,Water Content by Kf (Report result % w/w),"2-8° C., 2 months",9.4 % w/w
same,Appearance (White to off-white solid),"2-8° C., 3 months",C
same,Assay by HPLC-UV (Anhydrous & Solvent Free basis) 97.0-103.0% w/w,"2-8° C., 3 months",100.3 % w/w
same,Each unidentified impurity (NMT 0.5% area),"2-8° C., 3 months",C
same,Particle Size (Malvern) D10 (Report result μm),"2-8° C., 3 months",28.3 μm
same,Particle Size (Malvern) D50 (Report result μm),"2-8° C., 3 months",90.9 μm
same,Particle Size (Malvern) D90 (Report result μm),"2-8° C., 3 months",197.0 μm
same,Polymorphic form (XRPD) (Consistent with form 2 reference diffractogram),"2-8° C., 3 months",C
same,Purity by HPLC (NLT 98.0% area),"2-8° C., 3 months",100.0 % area
same,Total impurities (NMT 2.0% area),"2-8° C., 3 months",0.00 % area
same,Water Content by Kf (Report result % w/w),"2-8° C., 3 months",9.5 % w/w
same,Appearance (White to off-white solid),"2-8° C., 6 months",C
same,Assay by HPLC-UV (Anhydrous & Solvent Free basis) 97.0-103.0% w/w,"2-8° C., 6 months",99.6 % w/w
same,Each unidentified impurity (NMT 0.5% area),"2-8° C., 6 months",C
same,Particle Size (Malvern) D10 (Report result μm),"2-8° C., 6 months",28.3 μm
same,Particle Size (Malvern) D50 (Report result μm),"2-8° C., 6 months",91.1 μm
same,Particle Size (Malvern) D90 (Report result μm),"2-8° C., 6 months",199.0 μm
same,Polymorphic form (XRPD) (Consistent with form 2 reference diffractogram),"2-8° C., 6 months",C
same,Purity by HPLC (NLT 98.0% area),"2-8° C., 6 months",100.0 % area
same,Total impurities (NMT 2.0% area),"2-8° C., 6 months",0.00 % area
same,Water Content by Kf (Report result % w/w),"2-8° C., 6 months",9.3 % w/w
same,period over which stability is confirmed,"25° C. (Table 42), 60% RH long term storage conditions",12 months
same,Appearance (White to off-white solid),[1],C
same,Assay by HPLC-UV (Anhydrous & Solvent Free basis) 97.0-103.0% w/w,[1],101.6 % w/w
same,Each unidentified impurity (NMT 0.5% area),[1],C
same,Particle Size (Malvern) D10 (Report result μm),[1],28.2 μm
same,Particle Size (Malvern) D50 (Report result μm),[1],91.4 μm
same,Particle Size (Malvern) D90 (Report result μm),[1],201.3 μm
same,Polymorphic form (XRPD) (Consistent with form 2 reference diffractogram),[1],C
same,Purity by HPLC (NLT 98.0% area),[1],100.0 % area
same,Total impurities (NMT 2.0% area),[1],0.00 % area
same,Water Content by Kf (Report result % w/w),[1],9.3 % w/w
same,Appearance (White to off-white solid),[2],C
same,Assay by HPLC-UV (Anhydrous & Solvent Free basis) 97.0-103.0% w/w,[2],99.1 % w/w
same,Each unidentified impurity (NMT 0.5% area),[2],C
same,Particle Size (Malvern) D10 (Report result μm),[2],28.3 μm
same,Particle Size (Malvern) D50 (Report result μm),[2],91.4 μm
same,Particle Size (Malvern) D90 (Report result μm),[2],199.0 μm
same,Polymorphic form (XRPD) (Consistent with form 2 reference diffractogram),[2],C
same,Purity by HPLC (NLT 98.0% area),[2],100.0 % area
same,Total impurities (NMT 2.0% area),[2],0.00 % area
same,Water Content by Kf (Report result % w/w),[2],9.5 % w/w
same,Appearance (White to off-white solid),[3],C
same,Assay by HPLC-UV (Anhydrous & Solvent Free basis) 97.0-103.0% w/w,[3],100.2 % w/w
same,Each unidentified impurity (NMT 0.5% area),[3],C
same,Particle Size (Malvern) D10 (Report result μm),[3],26.8 μm
same,Particle Size (Malvern) D50 (Report result μm),[3],88.5 μm
same,Particle Size (Malvern) D90 (Report result μm),[3],196.0 μm
same,Polymorphic form (XRPD) (Consistent with form 2 reference diffractogram),[3],C
same,Purity by HPLC (NLT 98.0% area),[3],100.0 % area
same,Total impurities (NMT 2.0% area),[3],0.00 % area
same,Water Content by Kf (Report result % w/w),[3],9.3 % w/w
same,Appearance (White to off-white solid),[4],C
same,Assay by HPLC-UV (Anhydrous & Solvent Free basis) 97.0-103.0% w/w,[4],100.4 % w/w
same,Each unidentified impurity (NMT 0.5% area),[4],C
same,Particle Size (Malvern) D10 (Report result μm),[4],30.2 μm
same,Particle Size (Malvern) D50 (Report result μm),[4],92.2 μm
same,Particle Size (Malvern) D90 (Report result μm),[4],192.0 μm
same,Polymorphic form (XRPD) (Consistent with form 2 reference diffractogram),[4],C
same,Purity by HPLC (NLT 98.0% area),[4],100.0 % area
same,Total impurities (NMT 2.0% area),[4],0.00 % area
same,Water Content by Kf (Report result % w/w),[4],9.3 % w/w
same,Appearance (White to off-white solid),[5],C
same,Assay by HPLC-UV (Anhydrous & Solvent Free basis) 97.0-103.0% w/w,[5],99.6 % w/w
same,Each unidentified impurity (NMT 0.5% area),[5],C
same,Particle Size (Malvern) D10 (Report result μm),[5],28.1 μm
same,Particle Size (Malvern) D50 (Report result μm),[5],91.3 μm
same,Particle Size (Malvern) D90 (Report result μm),[5],203.0 μm
same,Polymorphic form (XRPD) (Consistent with form 2 reference diffractogram),[5],C
same,Purity by HPLC (NLT 98.0% area),[5],100.0 % area
same,Total impurities (NMT 2.0% area),[5],0.00 % area
same,Water Content by Kf (Report result % w/w),[5],9.3 % w/w
same,period over which stability is confirmed,"30° C. (Table 43), 65% RH intermediate conditions",12 months
same,Appearance (White to off-white solid),[6],C
same,Assay by HPLC-UV (Anhydrous & Solvent Free basis) 97.0-103.0% w/w,[6],101.6 % w/w
same,Each unidentified impurity (NMT 0.5% area),[6],C
same,Particle Size (Malvern) D10 (Report result μm),[6],28.2 μm
same,Particle Size (Malvern) D50 (Report result μm),[6],91.4 μm
same,Particle Size (Malvern) D90 (Report result μm),[6],201.3 μm
same,Polymorphic form (XRPD) (Consistent with form 2 reference diffractogram),[6],C
same,Purity by HPLC (NLT 98.0% area),[6],100.0 % area
same,Total impurities (NMT 2.0% area),[6],0.00 % area
same,Water Content by Kf (Report result % w/w),[6],9.3 % w/w
same,Appearance (White to off-white solid),[7],C
same,Assay by HPLC-UV (Anhydrous & Solvent Free basis) 97.0-103.0% w/w,[7],99.2 % w/w
same,Each unidentified impurity (NMT 0.5% area),[7],C
same,Particle Size (Malvern) D10 (Report result μm),[7],29.3 μm
same,Particle Size (Malvern) D50 (Report result μm),[7],92.1 μm
same,Particle Size (Malvern) D90 (Report result μm),[7],199.0 μm
same,Polymorphic form (XRPD) (Consistent with form 2 reference diffractogram),[7],C
same,Purity by HPLC (NLT 98.0% area),[7],100.0 % area
same,Total impurities (NMT 2.0% area),[7],0.00 % area
same,Water Content by Kf (Report result % w/w),[7],9.3 % w/w
same,Appearance (White to off-white solid),[8],C
same,Assay by HPLC-UV (Anhydrous & Solvent Free basis) 97.0-103.0% w/w,[8],100.2 % w/w
same,Each unidentified impurity (NMT 0.5% area),[8],C
